According to US7253178B2, “Carboxylic acids” (Eisai Co., Ltd., priority 2001, dated 2007):

Columns and labels:
Experiment in all cases: Transcriptional activity, GAL4-PPAR LBD chimera / PLAP reporter in CV-1 cells
Format in all cases: cell-based
PPAR α = biological target: T1, PPAR α (Homo sapiens, UniProt Q07869); settings: GAL4-PPARα LBD (167-468), PLAP activity 24 hours after addition, read-out: Transcriptional activities EC50 PPAR α
T1 construct: human PPAR 167-468 (PPARα); expressed in transfected cells; host or cells: CV-1 (ATCC CCL-70)
T1 sequence (Q07869 167-468): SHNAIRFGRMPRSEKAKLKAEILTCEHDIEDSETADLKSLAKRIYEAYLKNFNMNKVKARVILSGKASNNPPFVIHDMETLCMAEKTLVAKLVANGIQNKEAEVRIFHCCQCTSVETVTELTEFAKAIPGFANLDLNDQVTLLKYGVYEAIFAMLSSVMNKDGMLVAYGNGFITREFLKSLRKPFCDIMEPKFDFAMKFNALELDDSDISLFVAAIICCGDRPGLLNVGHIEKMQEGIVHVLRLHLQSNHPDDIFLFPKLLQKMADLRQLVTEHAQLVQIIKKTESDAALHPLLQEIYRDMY
Excerpt: (§1) A GAL4-PPAR LBD chimera expression vector was constructed by ligating human PPAR 167-468 (PPARα), 138-440 (NUC-1) and 174-475 (PPARγ) amino acid regions (LBD: Ligand Binding Domain) to a yeast transcriptional factor GAL4 1-147 amino acid region. As the reporter gene, PLAP (Placental Alkaline Phosphatase) was used, and this was ligated downstream of a TK promoter containing a 5-copy GAL4 DNA binding element to construct a vector. As host cells, CV-1 (ATCC CCL-70) was used. That is, CV-1 cells were spread at a density of 5×10^5 cells on a 35-mm dish and cultured in 10% FCS/DMEM for 24 hours, and using FuGENE 6 transfection reagent, the cells were co-transfected with the GAL4-PPAR LBD expression vector and GAL4 DBD-TK-PLAP expression vector. 24 hours after this transfection, the cells were spread again on a 96-well plate at a density of 1×10^4/well and further cultured for 24 hours. After 24 hours, the medium was exchanged with DMEM containing 10% FCS, which was previously treated at 65° C. for inactivating intrinsic alkaline phosphatase, and a test compound was added at an arbitrary concentration. The transcriptional activity was determined in terms of PLAP activity secreted 24 hours after addition of the compound, to calculate EC50. The PLAP activity was determined after adding 50 μl assay buffer and 50 μl chemoluminescence substrate to 10 μl culture supernatant and incubating the mixture at room temperature for 1 hour. The transcriptional activities for PPAR, PPARβ(δ) and PPARγ are shown respectively in Table 1.

PPAR β = biological target: T2, PPAR β (Homo sapiens, UniProt Q03181); settings: GAL4-NUC-1 LBD (138-440), PLAP activity 24 hours after addition, read-out: Transcriptional activities EC50 PPAR β
T2 construct: 138-440 (NUC-1); expressed in transfected cells; host or cells: CV-1 (ATCC CCL-70)
T2 sequence (Q03181 138-440): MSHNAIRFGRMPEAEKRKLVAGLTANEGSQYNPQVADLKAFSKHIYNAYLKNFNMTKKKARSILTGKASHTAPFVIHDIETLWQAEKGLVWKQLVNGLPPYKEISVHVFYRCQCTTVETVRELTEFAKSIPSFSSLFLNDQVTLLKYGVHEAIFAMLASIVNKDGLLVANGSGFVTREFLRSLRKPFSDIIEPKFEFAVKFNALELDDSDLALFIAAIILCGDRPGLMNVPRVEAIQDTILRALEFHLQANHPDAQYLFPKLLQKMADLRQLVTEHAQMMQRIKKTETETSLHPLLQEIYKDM
Excerpt: as §1

PPAR γ = biological target: T3, PPAR γ (Homo sapiens, UniProt P37231); settings: GAL4-PPARγ LBD (174-475), PLAP activity 24 hours after addition, read-out: Transcriptional activities EC50 PPAR γ
T3 construct: 174-475 (PPARγ); expressed in transfected cells; host or cells: CV-1 (ATCC CCL-70)
T3 sequence (P37231 174-475 isoform P37231-2): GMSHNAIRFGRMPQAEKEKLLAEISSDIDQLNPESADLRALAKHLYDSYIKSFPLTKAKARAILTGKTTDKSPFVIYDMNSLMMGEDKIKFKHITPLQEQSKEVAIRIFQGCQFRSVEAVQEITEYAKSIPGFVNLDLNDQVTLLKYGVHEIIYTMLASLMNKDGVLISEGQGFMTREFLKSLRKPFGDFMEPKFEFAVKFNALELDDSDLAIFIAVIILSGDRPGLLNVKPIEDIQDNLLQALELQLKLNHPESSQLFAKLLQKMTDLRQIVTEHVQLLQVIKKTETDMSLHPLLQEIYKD
Excerpt: as §1

SMILES	EC50 (PPAR α) [nM]	EC50 (PPAR β) [nM]	EC50 (PPAR γ) [nM]
CCOC(Cc1ccnc(OCCOc2ccc(C(C)(C)C)cc2)c1)C(=O)O (stereo not drawn) [Example 25, 3-(2-{2-[4-(tert-Butyl)phenoxy]ethoxy}-4-pyridyl)-2-ethoxypropanoic acid]	2.7	1580	76.3
CCOC(Cc1ccnc(OCCOc2ccc(C(F)(F)F)cc2)c1)C(=O)O (stereo not drawn) [Example 19, 2-Ethoxy-3-(2-{2-[4-(trifluoromethyl)phenoxy]ethoxy}-4-pyridyl)propanoic acid]	4.9	339	64.1
CC(C)OC(Cc1ccnc(OCCOc2ccc(Cl)cc2Cl)c1)C(=O)O (stereo not drawn) [Example 1, 3-{2-[2-(2,4-Dichlorophenoxy)ethoxy]-4-pyridyl}-2-isopropoxypropanoic acid]	5.6	1410	68.5
